Test results reported in patent US8822430B2 (Gilead Sciences, Inc., priority 2009, dated 2014).

System: HCV 1b RLuc cells (dicistronic genotype 1b Con1 replicon)
Test: Renilla luciferase (RLuc)-based HCV replicon reporter assay
Type: cell-based, HCV genotype 1b
Conditions: HCV 1b RLuc replicon, 72 hours; read-out: Activity (antiviral potency [EC50])
Summary of the method: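 EC50 values were calculated by non-linear regression of Renilla luciferase signal from lysed cells after 72 h of compound exposure. Cells harboured a genotype 1b Con1 dicistronic replicon encoding RLuc. Compounds were serially diluted in DMSO from 10 mM stocks into culture media.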

| Structure (SMILES) | EC50 [nM] |
| --- | --- |
| COC(=O)N[C@H](C(=O)N1CCC[C@H]1c1ncc(-c2ccc(-c3ccc(-c4cnc([C@@H]5CSC(c6ccncc6)N5C(=O)OCc5ccccc5)[nH]4)cc3)cc2)[nH]1)C(C)C (single isomer, unassigned) [drawing 1301] | 0.0765 |
| COC(=O)N[C@H](C(=O)N1CCC[C@H]1c1ncc(-c2ccc(-c3ccc(-c4cnc([C@@H]5CSC(c6ccncc6)N5C(=O)OCc5ccccc5)[nH]4)cc3)cc2)[nH]1)C(C)C (single isomer, unassigned) [drawing 1302] | 0.0209 |

Same assay, conditions: Hepatitis C virus, 72 h, HCV 1b RLuc replicon, 72 hours; read-out: Activity (antiviral potency [EC50])

| Structure (SMILES) | EC50 [nM] |
| --- | --- |
| COC(=O)N[C@H](C(=O)N1CCC[C@H]1c1ncc(-c2ccc(-c3ccc(-c4cnc([C@@H]5CN(C(C)=O)CN5C(=O)[C@@H](NC(=O)OC)C(C)C)[nH]4)cc3)cc2)[nH]1)C(C)C | 0.0852 |
| COC(=O)N[C@H](C(=O)N1CCC[C@H]1c1ncc(-c2ccc(-c3ccc(-c4cnc([C@@H]5CCCN5C(=O)[C@@H](NC(=O)OC)C(C)C)[nH]4)s3)cc2)[nH]1)C(C)C | 0.0081 |
| COC(=O)N[C@H](C(=O)N1CCC[C@H]1c1nc(-c2cccc(Oc3ccc(-c4cnc([C@@H]5CCCN5C(=O)[C@@H](NC(=O)OC)C(C)C)[nH]4)cc3)c2)c[nH]1)C(C)C | 0.0539 |
| COC(=O)N[C@H](C(=O)N1CCC[C@H]1c1ncc(-c2ccc(C#Cc3ccc(-c4cnc([C@@H]5CCCN5C(=O)[C@@H](NC(=O)OC)C(C)C)[nH]4)cc3)cc2)[nH]1)C(C)C | 0.0126 |
| COC(=O)N[C@H](C(=O)N1CCC[C@H]1c1ncc(-c2ccc(N3CCN(c4ccc(-c5cnc([C@@H]6CCCN6C(=O)[C@@H](NC(=O)OC)C(C)C)[nH]5)cc4)CC3)cc2)[nH]1)C(C)C | 0.199 |
| COC(=O)N[C@H](C(=O)N1CCC[C@H]1c1ncc(-c2ccc3c(c2)COCc2cc(-c4cnc([C@@H]5CCCN5C(=O)[C@@H](NC(=O)OC)C(C)C)[nH]4)ccc2-3)[nH]1)C(C)C | 0.0327 |
| COC(=O)N[C@H](C(=O)N1CCC[C@H]1c1ncc(C#Cc2ccc(-c3cnc([C@@H]4CCCN4C(=O)[C@@H](NC(=O)OC)C(C)C)[nH]3)cc2)[nH]1)C(C)C | 0.139 |
| COC(=O)N[C@H](C(=O)N1CCC[C@H]1CNC(=O)c1ccc(-c2ccc(-c3cnc([C@@H]4CCCN4C(=O)[C@@H](NC(=O)OC)C(C)C)[nH]3)cc2)cc1)C(C)C | 0.0915 |
| COC(=O)N[C@H](C(=O)N1CCC[C@H]1c1nc2ccc(-c3ccc(-c4cnc([C@@H]5[C@H]6CC[C@H](C6)N5C(=O)[C@@H](NC(=O)OC)C(C)C)[nH]4)cc3)cc2[nH]1)C(C)C | 0.0553 |
| COC(=O)N[C@H](C(=O)N1CCC[C@H]1c1ncc(-c2ccc(-c3ccc(-c4cnc([C@@H]5CC[C@@H]6CC[C@H](NC(=O)OC(C)(C)C)C(=O)N65)[nH]4)cc3)cc2)[nH]1)C(C)C | 0.325 |
| COC(=O)N[C@H](C(=O)N1CCC[C@H]1c1ncc(-c2ccc(-c3ccc(-c4cnc(CN5CCC[C@H](N)C5=O)[nH]4)cc3)cc2)[nH]1)C(C)C | 4.8 |
| COC(=O)N[C@H](C(=O)N1CCC[C@H]1c1ncc(-c2ccc(-c3ccc(-c4cnc(CN5CCC[C@H](NC(=O)OC(C)(C)C)C5=O)[nH]4)cc3)cc2)[nH]1)C(C)C | 0.058 |
| COC(=O)N[C@H](C(=O)N1CCC[C@H]1c1nc2ccc(-c3ccc4nc([C@@H]5CCCN5C(=O)[C@@H](NC(=O)OC)C(C)C)[nH]c4c3)cc2[nH]1)C(C)C | 35.5 |
| CN[C@H](C(=O)N1CCC[C@H]1c1nc2ccc(-c3ccc(-c4ccc(-c5ccc6nc([C@@H]7CCCN7C(=O)[C@@H](NC(=O)OC)C(C)C)[nH]c6c5)cc4)cc3)cc2[nH]1)C(C)C | 0.0441 |
| COC(=O)N[C@H]1CCCN(Cc2ncc(-c3ccc(-c4ccc(-c5cnc([C@@H]6CCCN6C(=O)[C@@H](NC(=O)OC)C(C)C)[nH]5)cc4)cc3)[nH]2)C1=O | 0.147 |
| COC(=O)N[C@H]1CC[C@H]2CC[C@@H](c3ncc(-c4ccc(-c5ccc(-c6cnc([C@@H]7CCCN7C(=O)[C@@H](NC(=O)OC)C(C)C)[nH]6)cc5)cc4)[nH]3)N2C1=O | 0.156 |
| COC(=O)N[C@H](C(=O)N1CCC[C@H]1c1ncc(C#CC#Cc2cnc([C@@H]3CCCN3C(=O)[C@@H](NC(=O)OC)C(C)C)[nH]2)[nH]1)C(C)C | 1.33 |
| COC(=O)N[C@H](C(=O)N1CCC[C@H]1c1nc2ccc(-c3ccc(-c4ccc5nc([C@@H]6CCCN6C(=O)[C@@H](NC(=O)OC)C(C)C)[nH]c5c4)cc3)cc2[nH]1)C(C)C | 0.0099 |
| COC(=O)NC(C(=O)N1CCC[C@H]1c1ncc(-c2ccc(-c3ccc(-c4cnc([C@@H]5CCCN5C(=O)[C@@H](NC(=O)OC)C(C)C)[nH]4)cc3)c3ccccc23)[nH]1)C(C)C (stereo partly drawn) | 0.0067 |
| COC(=O)N[C@H](C(=O)N1CCC[C@H]1c1ncc(-c2ccc(-c3ccc(-c4cnc(CN5CC(=O)N[C@@H](C(C)C)C5=O)[nH]4)cc3)cc2)[nH]1)C(C)C | 0.513 |
| COC(=O)N[C@H](C(=O)N1CCC[C@H]1C(=O)Nc1cccc(-c2ccc(-c3ccc(-c4cnc([C@@H]5CCCN5C(=O)[C@@H](NC(=O)OC)C(C)C)[nH]4)cc3)cc2)c1)C(C)C | 0.0111 |
| COC(=O)N[C@H](C(=O)N1CCC[C@H]1c1ncc(-c2ccc3cc(-c4ccc(-c5cnc([C@@H]6CCCN6C(=O)[C@@H](NC(=O)OC)C(C)C)[nH]5)cc4)ccc3c2)[nH]1)c1ccccc1 | 0.0305 |
| COC(=O)N[C@H](C(=O)N1CCC[C@H]1c1ncc(-c2ccc(-c3ccc4cc(-c5cnc([C@@H]6CCCN6C(=O)[C@H](NC(=O)OC)c6ccccc6)[nH]5)ccc4c3)cc2)[nH]1)C(C)C | 0.0083 |
| COC(=O)NC(C(=O)N1CCC[C@H]1c1ncc(-c2ccc(-c3ccc4cc(-c5cnc([C@@H]6CCCN6C(=O)[C@@H](NC(=O)OC)C(C)C)[nH]5)ccc4c3)cc2)[nH]1)c1ccccc1C (stereo partly drawn) | 0.0117 |
| COC(=O)N[C@H](C(=O)N1CCC[C@H]1c1ncc(-c2ccc3cc(-c4ccc(-c5cnc([C@@H]6CCCN6C(=O)[C@H](NC(=O)OC)c6ccccc6OC)[nH]5)cc4)ccc3c2)[nH]1)C(C)C | 0.0073 |
| COC(=O)N[C@H](C(=O)N1CCC[C@H]1c1ncc(-c2ccc(-c3ccc4cc(-c5cnc([C@@H]6C[C@H](C#N)CN6C(=O)[C@H](NC(=O)OC)c6ccccc6)[nH]5)ccc4c3)cc2)[nH]1)C(C)C | 0.0097 |

Same assay, conditions: Hepatitis C virus, 72 h, read-out: Activity (antiviral potency [EC50])

| Structure (SMILES) | EC50 [nM] |
| --- | --- |
| COC(=O)N[C@H](C(=O)N1CCC[C@H]1C(=O)Nc1ccc(NC(=O)c2ccc(NC(=O)[C@@H]3CCCN3C(=O)[C@@H](NC(=O)OC)C(C)C)cc2)cc1)C(C)C | 37.8 |

Same assay, conditions: Hepatitis C virus, GETYPE1B, 72 h, HCV 1b RLuc replicon, 72 hours; read-out: Activity (antiviral potency [EC50])

| Structure (SMILES) | EC50 [nM] |
| --- | --- |
| COC(=O)N[C@H](C(=O)N1CCC[C@H]1c1ncc(-c2ccc3cc(-c4cnc([C@@H]5CCCN5C(=O)[C@@H](NC(=O)OC)C(C)C)[nH]4)ccc3c2)[nH]1)C(C)C | 0.0511 |
